Reference: patent US12037327B2, “Compounds and methods targeting GPER for treatment of diseases associated with calcium” (Saint Louis University, priority 2018, dated 2024)

Columns and labels:
[1] = target: T1, GPER (Homo sapiens, UniProt Q99527); assay: calcium mobilization assay, agonists tested against EC50 of GPER antagonist G-36; assay type: cell-based; settings: for change in calcium efflux in response to G-36: agonist at 100 nM against EC50 of G-36, normalized
T1 construct: siRNA was used to knock-down expression of GPER; endogenous in cells; host or cells: HL-60 (human myelocytic leukemia) cells
Description: Each signal was normalized to the baseline signaling of G-36 and the maximum signal achieved by the specific agonist. Results are shown at 100 nM.
Calcium mobilization signal was assessed with the use of 0.1% pluronic acid and 5 μM Indo-1AM, a ratiometric dye. The EC50 values were determined based upon triplicate runs on triplicate plates. […] Cyclic AMP formation through the Gi/o-pathway was monitored utilizing a homogenous time-resolved fluorescence assay purchased from CisBio. A triplicate was performed and an EC50 value was calculated. […] The EC50 values were determined based upon triplicate runs on a triplicate plates. To confirm that calcium efflux originated from activation of the G protein-coupled estrogen receptor (GPER), a known selective antagonist, G-36 was used to antagonize the signal. […] Additional data can be found in FIG. 9. […] Without wishing to be bound by any theory, it is believed that within the new functionalization of the scaffold the lone pair on the oxygen of furfuran ring system and the nitrogen on pyridinyl ring system work to activate the receptor. […] Based upon neurite outgrowth studies and without wishing to be bound by any theory, it is believed that the compounds may aid in the elongation and connectivity of neurons. This has implication in a variety of neurodegenerative diseases, such as Alzheimer's disease and Parkinson's disease, but also psychiatric illnesses including Austism and Schizophrenia.

[2] = target: T2, G protein-coupled estrogen receptor (GPER) (Homo sapiens, UniProt Q99527); assay: HTRF cAMP formation assay in HL-60 cells; assay type: cell-based; settings: values with * unexplained
T2 construct: siRNA was used to knock-down expression of GPER; endogenous in cells; host or cells: HL-60 (human myelocytic leukemia) cells
Description: For cAMP formation studies to determine potentcy, a homogeneous time resolved fluorescence (HTRF®) components for cAMP was purchased by CisBio (Bedford, MA). HL-60 cells were grown in 10% charcoal-stripped RPMI media for 72 hours prior to assays. Cells were centrifuged and counted with a hemocytometer from Hausser Scientific (Horsham, PA). The total number of cells needed to complete the assay was determined based upon 8,000 cells/well. The determined number of cells was diluted in 5:1 (5×) stimulation buffer contain 500 μM of 3-isobutyl-1-methylxanthine (IBMX) (Sigma Aldrich, Saint Louis, MO). To an HTRF 96-well low volume white plate from CisBio, 2 μL of (5×) agonist was added to the designated wells, followed by 8 μL of col cell suspension. Two controls were run during the experiment to establish basal cAMP formation and […] cAMP with the use of 20 μM forskolin. Cells were covered with a clear plastic film and incubated at 37° C. for 15 mins. During the 15 minutes incubation a 4:1 solution of lysis buffer to dye was prepared individually. After the 15 minute incubation 5 μL of lysis buffer/cAMP-d2 (acceptor) and 5 μL of lysis buffer/monocolonal anti-cAMP Eu3^+ cryptate (donor) were added to all wells. Once added, the plate was sealed, covered with aluminum foil, and incubated at room temperature for 30 mins. After the allotted time cells were read using Flexstation3 and with λex 314 nm and λem 665 nm/λem 620. Antagonism assay format varied slightly. […] To the plate, 2 μL of (5×) antagonist were added dose wise followed by the addition of 6 μL of cold cell suspension to all wells. Controls from the agonism assay remained the same in the antagonism assay. Cells and antagonists were incubated for 20 minutes at 37° C. […] Similar to the agonism assay a 4:1 ratio of lysis buffer to donor/acceptor were prepared. Following the previous incubation period, 5 μL of lysis buffer/cAMP-d2 (acceptor) and 5 μL of lysis buffer/monocolonal anti-cAMP Eu3^+ cryptate (donor) were added to all wells. Cells were allowed to equilibrate at room temperature for 30 minutes before being read at λex 314 nm and λem 665 nm/λem 620.
Calcium mobilization signal was assessed with the use of 0.1% pluronic acid and 5 μM Indo-1AM, a ratiometric dye. The EC50 values were determined based upon triplicate runs on triplicate plates. […] Cyclic AMP formation through the Gi/o-pathway was monitored utilizing a homogenous time-resolved fluorescence assay purchased from CisBio. A triplicate was performed and an EC50 value was calculated. […] The EC50 values were determined based upon triplicate runs on a triplicate plates.

T1 sequence (Q99527 whole entry): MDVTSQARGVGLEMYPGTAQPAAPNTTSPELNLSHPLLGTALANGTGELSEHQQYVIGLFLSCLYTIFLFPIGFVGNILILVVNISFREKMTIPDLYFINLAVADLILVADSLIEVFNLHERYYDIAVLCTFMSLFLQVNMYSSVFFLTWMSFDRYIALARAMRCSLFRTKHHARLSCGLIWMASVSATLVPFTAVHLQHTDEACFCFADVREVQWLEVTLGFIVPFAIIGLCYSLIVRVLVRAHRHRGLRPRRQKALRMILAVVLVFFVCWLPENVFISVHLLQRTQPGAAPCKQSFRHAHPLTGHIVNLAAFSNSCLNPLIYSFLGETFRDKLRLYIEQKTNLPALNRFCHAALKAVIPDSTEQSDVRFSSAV
T2 sequence (Q99527 whole entry): as above

| Structure (SMILES) | change in calcium efflux in response to G-36 [1] | EC50 [2] [nM] | calcium signal when antagonized with G-36 ([1]; concentration not given) |
| --- | --- | --- | --- |
| CC(C)c1ccc(NCc2ccc(CO)o2)c(C2CCCCC2)c1 [Compound 1] | significant increase | 1590 |  |
| CC(C)c1ccc(NCc2ccoc2)c(C2CCCCC2)c1 [Compound 2] | significant increase | 1190 | reduced to basal response |
